Results reported in patent US20240417398A1, “TETRAHYDRONAPTHYRIDINE AND RELATED ANALOGS FOR INHIBITING YAP/TAZ-TEAD” (SpringWorks Therapeutics, Inc., priority 2023, published 2024).

Legend:
Assay type in all cases: cell-based
[1] = test system: NCI-H226; assay: Mesothelioma cell line proliferation assay (ATPlite), NCI-H226; details: NCI-H226 cells, 6 days with compound, ATPlite cell viability
Procedure: (§1) Mesothelioma cell lines, NCI-H226 and NCI-H2052 (both sourced from the ATCC cell culture collection) were plated in 96-well plates (Corning® 96 Well White Polystyrene Microplate clear flat bottom, white polystyrene (TC-Treated)), at 1500 cells/well in full medium (RPMI 1640 ATCC modification with L-glutamine, HEPES, Phenol Red, Sodium Pyruvate, High glucose, Low sodium bicarbonate and 10% fetal bovine serum). Cells were incubated overnight at 37° C. in an incubator with 5% CO2. Then compounds, dissolved in DMSO, were added in dose-response. Cells were incubated with compound dilutions for another 6 days at 37° C. in an incubator with 5% CO2. Cell viability was quantitated using the ATPlite kit (Perkin-Elmer) and the luminescence was read-out using an Envision instrument (Perkin-Elmer). The amount of relative light units produced using the ATPlite kit was used to calculate percent of inhibition.
(§2) The activities of some example compounds are depicted in Table 4. The activity ranges A, B and C refer to EC50 values in the mesothelioma cell line proliferation assay as described as follows: “A”: EC50<1 μM; “B”: 1 μM≤EC50<10 μM and “C”: EC50>10 μM; NT: not tested.

[2] = test system: YAP/TAZ-TEAD transcription; assay: Reporter gene assay for measuring the inhibition of YAP/TAZ-TEAD transcription (TEAD-responsive element luciferase reporter, Hek293T cells); details: Hek293T cells transfected with TEAD-responsive element luciferase reporter, 24 hours incubation
Procedure: Hek293T cells were cultured in DMEM supplemented with 10% fetal bovine serum, Sodium pyruvate, Sodium bicarbonate, L-glutamine. The cells were harvested and transiently transfected with TEAD-responsive element luciferase reporter. Transfected cells were plated in 384-well plate containing pre-diluted compounds. After 24 hours incubation at 37° C./5% CO2, assay plates were cooled to room temperature and levelled to an equal volume per well, prior to the addition of 25 uL luciferase substrate SteadyLite (Perkin Elmer)/well. The plate was shaken for 10 min at 600 rpm, centrifuged for 1 min at 500 rpm and measured with an Envision reader (PerkinElmer). The amount of relative light units produced by the TEAD reporter was used to calculate the percentage of inhibition.
The percent of reporter inhibition was calculated in the presence of a positive control inhibitor (100% inhibition) versus a condition with the presence of the vehicle basal activity of the reporter (0% inhibition). The ability of a test compound to inhibit this activity was determined as: Percentage inhibition=[1-((RLU determined in the presence of vehicle−RLU determined for sample with test compound present) divided by (RLU determined in the presence of vehicle−RLU determined for sample with positive control inhibitor))]*100.
The activities of example compounds tested are depicted in Table 3. The activity ranges A, B and C refer to IC50 values in the reporter gene assay as follows: “A”: IC50<1 μM; “B”: 1 μM≤IC50 10 μM and “C”: IC50>10 μM; NT=not tested.

[3] = test system: NCI-H2052; assay: Mesothelioma cell line proliferation assay (ATPlite), NCI-H2052; details: NCI-H2052 cells, 6 days with compound, ATPlite cell viability
Procedure: as §1, §2

Compound | IC50 ([2]; Homo sapiens, HEK-293T, 24 h) | also measured
C=CC(=O)NCC1Cc2c(OCc3cc[nH]c(=O)c3)cccc2N(c2ccc(C(F)(F)F)cc2)C1 (single isomer, unassigned) [Cpd. No. 6-En2, (R)- or (S)-N-((5-((2-oxo-1,2-dihydropyridin-4-yl)methoxy)-1-(4-(trifluoromethyl)phenyl)-1,2,3,4-tetrahydroquinolin-3-yl)methyl)acrylamide] | – | EC50 ([1]; Homo sapiens, 144 h): < 1000 nM; EC50 ([3]; Homo sapiens, 144 h): < 1000 nM; IC50 [2]: < 1000 nM
CC(=O)NCC1Cc2ncccc2N(c2ccc(C(F)(F)F)cc2)C1 (single isomer, unassigned) [Cpd. No. 12-En2, (R)- or (S)-N-((1-(4-(trifluoromethyl)phenyl)-1,2,3,4-tetrahydro-1,5-naphthyridin-3-yl)methyl)acetamide] | – | EC50 ([1]; Homo sapiens, 144 h): < 1000 nM; EC50 ([3]; Homo sapiens, 144 h): < 1000 nM; IC50 [2]: < 1000 nM
C=CC(=O)NCC1Cc2c(OCc3cc(=O)[nH]c(=O)n3C)cccc2N(c2ccc(C(F)(F)F)cc2)C1 (single isomer, unassigned) [Cpd. No. 14-En2, (R)- or (S)-N-((5-((3-methyl-2,6-dioxo-1,2,3,6-tetrahydropyrimidin-4-yl)methoxy)-1-(4-(trifluoromethyl)phenyl)-1,2,3,4-tetrahydroquinolin-3-yl)methyl)acrylamide] | – | EC50 [1]: < 1000 nM; EC50 [3]: < 1000 nM
CC(=O)NCc1cc2c(c(-c3ccc(C(F)(F)F)cc3)c1)CN(C)CC2 [Cpd. No. 46, N-((2-methyl-8-(4-(trifluoromethyl)phenyl)-1,2,3,4-tetrahydroisoquinolin-6-yl)methyl)acetamide] | > 10000 nM | –
CC(=O)NCC1Cc2c(ccc(=O)n2C)N(c2ccc(C(F)(F)F)cc2)C1 (centres unmarked) [Cpd. No. 48, N-((5-methyl-6-oxo-1-(4-(trifluoromethyl)phenyl)-1,2,3,4,5,6-hexahydro-1,5-naphthyridin-3-yl)methyl)acetamide] | > 10000 nM | –
CC(=O)NCC1Cc2ncc(N)cc2N(c2ccc(C(F)(F)F)cc2)C1 (centres unmarked) [Cpd. No. 49, N-((7-amino-1-(4-(trifluoromethyl)phenyl)-1,2,3,4-tetrahydro-1,5-naphthyridin-3-yl)methyl)acetamide] | 1000 to 10000 nM | –
CC(=O)NCC1Cc2ncccc2N(c2ccc(C(F)(F)F)cn2)C1 (centres unmarked) [Cpd. No. 53, N-((1-(5-(trifluoromethyl)pyridin-2-yl)-1,2,3,4-tetrahydro-1,5-naphthyridin-3-yl)methyl)acetamide] | 1000 to 10000 nM | –
CCc1ccc2c(n1)CC(CNC(C)=O)CN2c1ccc(C(F)(F)F)cc1 (centres unmarked) [Cpd. No. 55, N-((6-ethyl-1-(4-(trifluoromethyl)phenyl)-1,2,3,4-tetrahydro-1,5-naphthyridin-3-yl)methyl)acetamide] | < 1000 nM | –
CC(=O)NCC1Cc2nccnc2N(c2ccc(C(F)(F)F)cc2)C1 (centres unmarked) [Cpd. No. 56, N-((5-(4-(trifluoromethyl)phenyl)-5,6,7,8-tetrahydropyrido[2,3-b]pyrazin-7-yl)methyl)acetamide] | < 1000 nM | –
CC(=O)NCC1Cc2nc(C3CC3)ccc2N(c2ccc(C(F)(F)F)cc2)C1 (centres unmarked) [Cpd. No. 57, N-((6-cyclopropyl-1-(4-(trifluoromethyl)phenyl)-1,2,3,4-tetrahydro-1,5-naphthyridin-3-yl)methyl)acetamide] | < 1000 nM | –
CC(=O)NCC1Cc2nc(C#N)ccc2N(c2ccc(C(F)(F)F)cc2)C1 (centres unmarked) [Cpd. No. 58, N-((6-cyano-1-(4-(trifluoromethyl)phenyl)-1,2,3,4-tetrahydro-1,5-naphthyridin-3-yl)methyl)acetamide] | > 10000 nM | –
CC(=O)NCC1Cc2nc(C(N)=O)ccc2N(c2ccc(C(F)(F)F)cc2)C1 (centres unmarked) [Cpd. No. 59, 7-(acetamidomethyl)-5-(4-(trifluoromethyl)phenyl)-5,6,7,8-tetrahydro-1,5-naphthyridine-2-carboxamide] | > 10000 nM | –
CC(=O)NCC1Cc2nc(OC(F)F)ccc2N(c2ccc(C(F)(F)F)cc2)C1 (centres unmarked) [Cpd. No. 60, N-((6-(difluoromethoxy)-1-(4-(trifluoromethyl)phenyl)-1,2,3,4-tetrahydro-1,5-naphthyridin-3-yl)methyl)acetamide] | < 1000 nM | –
CC(=O)NCC1Cc2nc(C(F)F)ccc2N(c2ccc(C(F)(F)F)cc2)C1 (centres unmarked) [Cpd. No. 61, N-((6-(difluoromethyl)-1-(4-(trifluoromethyl)phenyl)-1,2,3,4-tetrahydro-1,5-naphthyridin-3-yl)methyl)acetamide] | 1000 to 10000 nM | –
CC(=O)NCC1Cc2nc(Br)ccc2N(c2ccc(C(F)(F)F)cc2)C1 (centres unmarked) [Cpd. No. 62, N-((6-bromo-1-(4-(trifluoromethyl)phenyl)-1,2,3,4-tetrahydro-1,5-naphthyridin-3-yl)methyl)acetamide] | < 1000 nM | –
C#Cc1ccc2c(n1)CC(CNC(C)=O)CN2c1ccc(C(F)(F)F)cc1 (centres unmarked) [Cpd. No. 63, N-((6-ethynyl-1-(4-(trifluoromethyl)phenyl)-1,2,3,4-tetrahydro-1,5-naphthyridin-3-yl)methyl)acetamide] | < 1000 nM | –

The next lines start with results.

IC50 ([2]; Homo sapiens, HEK-293T, 24 h) | Compound | also measured
< 1000 nM | C=CC(=O)NCC1Cc2c(OCc3cc[nH]c(=O)c3)cccc2N(c2ccc(C(F)(F)F)cc2)C1 (single isomer, unassigned) [Cpd. No. 6-En1, (R)- or (S)-N-((5-((2-oxo-1,2-dihydropyridin-4-yl)methoxy)-1-(4-(trifluoromethyl)phenyl)-1,2,3,4-tetrahydroquinolin-3-yl)methyl)acrylamide] | EC50 [1]: < 1000 nM
< 1000 nM | C=CC(=O)NCC1Cc2ncccc2N(c2ccc(C(F)(F)F)cc2)C1 (single isomer, unassigned) [Cpd. No. 10-En1, (R)- or (S)-N-((1-(4-(trifluoromethyl)phenyl)-1,2,3,4-tetrahydro-1,5-naphthyridin-3-yl)methyl)acrylamide] | EC50 ([1]; Homo sapiens, 144 h): < 1000 nM; EC50 ([3]; Homo sapiens, 144 h): < 1000 nM
< 1000 nM | C=CC(=O)NCC1Cc2c(OCc3cc(=O)[nH]c(=O)n3C)cccc2N(c2ccc(C(F)(F)F)cc2)C1 (single isomer, unassigned) [Cpd. No. 14-En1, (R)- or (S)-N-((5-((3-methyl-2,6-dioxo-1,2,3,6-tetrahydropyrimidin-4-yl)methoxy)-1-(4-(trifluoromethyl)phenyl)-1,2,3,4-tetrahydroquinolin-3-yl)methyl)acrylamide] | EC50 ([1]; Homo sapiens, 144 h): < 1000 nM; EC50 ([3]; Homo sapiens, 144 h): < 1000 nM
< 1000 nM | CC(=O)NCC1Cc2nc(N)ccc2N(c2ccc(C(F)(F)F)cc2)C1 (centres unmarked) [Cpd. No. 45, N-((6-amino-1-(4-(trifluoromethyl)phenyl)-1,2,3,4-tetrahydro-1,5-naphthyridin-3-yl)methyl)acetamide] | –
< 1000 nM | CC(=O)NCC1(C)Cc2ncccc2N(c2ccc(C(F)(F)F)cc2)C1 (centres unmarked) [Cpd. No. 47, N-((3-methyl-1-(4-(trifluoromethyl)phenyl)-1,2,3,4-tetrahydro-1,5-naphthyridin-3-yl)methyl)acetamide] | –
< 1000 nM | CC(=O)NCC1Cc2ncc(F)cc2N(c2ccc(C(F)(F)F)cc2)C1 (centres unmarked) [Cpd. No. 50, N-((7-fluoro-1-(4-(trifluoromethyl)phenyl)-1,2,3,4-tetrahydro-1,5-naphthyridin-3-yl)methyl)acetamide] | –
< 1000 nM | CC(=O)NCC1Cc2ncc(Cl)cc2N(c2ccc(C(F)(F)F)cc2)C1 (centres unmarked) [Cpd. No. 51, N-((7-chloro-1-(4-(trifluoromethyl)phenyl)-1,2,3,4-tetrahydro-1,5-naphthyridin-3-yl)methyl)acetamide] | –
< 1000 nM | CC(=O)NCC1Cc2nc(N(C)C)ccc2N(c2ccc(C(F)(F)F)cc2)C1 (centres unmarked) [Cpd. No. 52, N-((6-(dimethylamino)-1-(4-(trifluoromethyl)phenyl)-1,2,3,4-tetrahydro-1,5-naphthyridin-3-yl)methyl)acetamide] | –
< 1000 nM | CC(=O)NCC1Cc2c(ccn(C)c2=O)N(c2ccc(C(F)(F)F)cc2)C1 (centres unmarked) [Cpd. No. 54, N-((6-methyl-5-oxo-1-(4-(trifluoromethyl)phenyl)-1,2,3,4,5,6-hexahydro-1,6-naphthyridin-3-yl)methyl)acetamide] | –
